Measurements from PubChem BioAssay (NCI).
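Compound exposure: 48 hours, 5 concentrations, 96-well plates. TGI: total growth inhibition.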

Key:
Experiment in all cases: DTP human tumour cell line panel, 48 h
NCI-H226 lung = test system: NCI-H226 lung
MDA-N = test system: MDA-N
SK-MEL-2 melanoma = test system: SK-MEL-2 melanoma
SNB-75 CNS = test system: SNB-75 CNS
SW-620 colon = test system: SW-620 colon
SK-MEL-5 melanoma = test system: SK-MEL-5 melanoma
M14 melanoma = test system: M14 melanoma
NCI/ADR-RES ovarian = test system: NCI/ADR-RES ovarian
IGROV1 ovarian = test system: IGROV1 ovarian
MDA-MB-435 = test system: MDA-MB-435

| Structure (SMILES) | TGI (NCI-H226 lung) | TGI (MDA-N) | TGI (SK-MEL-2 melanoma) | TGI (SNB-75 CNS) | TGI (SW-620 colon) | TGI (SK-MEL-5 melanoma) | TGI (M14 melanoma) | TGI (NCI/ADR-RES ovarian) | TGI (IGROV1 ovarian) | TGI (MDA-MB-435) |
| --- | --- | --- | --- | --- | --- | --- | --- | --- | --- | --- |
| COc1ccc(C(=O)/C=C/c2ccc(OCCCCCCCCCCOc3ccc(/C=C/C(=O)c4ccc(OC)c(OC)c4)cc3)cc2)c(OC)c1 | > 100 µM | > 100 µM | > 100 µM | > 100 µM | > 100 µM | > 100 µM | > 100 µM | > 100 µM | > 100 µM | > 100 µM |
| CN(C)CCN1C(=O)N(CCN(C)C)c2c3cc(O)ccc3nc3c([N+](=O)[O-])ccc1c23 | 30.5 µM | 26.7 µM | 59.1 µM | 44.9 µM | 24.7 µM | 26.8 µM |  | 86.3 µM | 13.6 µM | 32.9 µM |
| CC1CCc2sc3[nH]c(=S)n(C)c(=O)c3c2C1 (configuration not stated) | 87.9 µM | > 100 µM | > 100 µM | > 100 µM | > 100 µM | > 100 µM | 99.6 µM | > 100 µM | > 100 µM | > 100 µM |
| CC(C)NC(=O)OCc1c(COC(=O)NC(C)C)n(C)c2c1ccc1cc(Cl)c(Cl)cc12 | 17.3 µM | 26.5 µM | 32.2 µM | 28.4 µM | 23.5 µM | 30.1 µM | 29.2 µM | 36.8 µM | 22.2 µM | 19.5 µM |
| CC(=O)Oc1ccc2c(c1)O/C(=C\c1ccc(O)cc1)C2=O | > 100 µM | > 100 µM |  | > 100 µM | > 100 µM | > 100 µM | > 100 µM | > 100 µM | > 100 µM | > 100 µM |
| O=C1c2c(Br)sc(Br)c2[C@H]2OC(=S)N[C@@H]12 | 33.5 µM | 16.9 µM | 29 µM | 31 µM | 5.84 µM | 23.8 µM | 4.1 µM | 31.6 µM | 23.9 µM | 8.65 µM |
| Cc1nn(C(=O)c2ccccc2O)c2c1C(c1ccc([N+](=O)[O-])cc1)SC(N)=N2 (configuration not stated) | > 9.22 µM | > 10 µM | > 10 µM | > 8.41 µM | > 10 µM | > 10 µM | > 10 µM | > 10 µM | > 10 µM | > 10 µM |
| COc1ccc2c(c1)CCC(CN1CCN(CCOC(c3ccccc3)c3ccccc3)CC1)C2O (configuration not stated) | 34.1 µM | 28.1 µM | 33 µM | 34.5 µM | 60.1 µM | 21.9 µM | 29.1 µM | 27.4 µM | 30.1 µM | 32 µM |
| Cc1ccc2nc(Nc3ccccc3C)c(Nc3ccccc3C)nc2c1 | > 89.7 µM | 67.1 µM | 31.7 µM | > 96.6 µM | > 100 µM | > 63.8 µM | 81.8 µM | > 100 µM | > 100 µM | > 94.2 µM |
| N#Cc1ccnc(C(=O)N2CCCC2C(=O)O)c1 (configuration not stated) | > 100 µM | > 100 µM | > 100 µM | > 100 µM | > 100 µM | > 100 µM | > 100 µM | > 100 µM | > 100 µM | > 100 µM |
| Fc1cccc(F)c1C1SCc2nc3cc(Cl)ccc3n21 (configuration not stated) |  | > 100 µM | > 100 µM | > 100 µM | > 100 µM | 30.3 µM | > 100 µM | > 100 µM | > 72.4 µM | > 100 µM |
| CSc1ncnc2c1cnn2Cc1cn(COCC(O)CO)nn1 (configuration not stated) | > 100 µM | > 100 µM | > 100 µM |  | > 100 µM | > 100 µM | > 100 µM | > 100 µM | > 100 µM | > 100 µM |
| O=C(O[C@@H](/C=C/c1ccccc1)P1(=O)N(Cc2ccccc2)[C@@H]2CCCC[C@H]2N1Cc1ccccc1)c1ccccc1 | 9.58 µM | > 100 µM | 5.42 µM |  | > 100 µM | 4.16 µM | > 100 µM | > 100 µM | 15.5 µM | 68.7 µM |
| O=C(O)C12C3C4(C(=O)O)C1C1(C(=O)O)C2C3(C(=O)O)C41 (configuration not stated) |  | > 100 µM | > 100 µM | > 100 µM | > 100 µM | > 100 µM | > 100 µM | > 100 µM | > 100 µM | > 100 µM |
| CC(=O)N=S(NC(=O)c1ccc(C)cc1)C(Cl)(Cl)Cl (configuration not stated) | > 100 µM | > 100 µM |  | > 100 µM | 36.3 µM | 77.9 µM | 31.8 µM | 49.1 µM | 93.4 µM | 40.7 µM |
| C/C(=C\CO)CC[C@@H]1[C@@]2(C)CCCC(C)(C)[C@@H]2CC[C@@]1(C)O | 33.4 µM | 38 µM | 31.4 µM | 34.7 µM | 50.5 µM | 31.8 µM | 53.6 µM | 31.9 µM | 35.5 µM | 34.6 µM |
| Nc1cc2nc(-c3ccccc3)cn2cn1 | > 100 µM | > 100 µM | > 100 µM | > 100 µM | > 100 µM | > 100 µM | > 100 µM | > 100 µM |  | > 100 µM |
| Cc1nc2ccccc2n1Cc1ccc(NC(=S)Nc2ccccc2)cc1 | > 100 µM | > 100 µM | > 100 µM | > 100 µM | > 100 µM | 56.6 µM | > 100 µM | > 100 µM | > 100 µM | > 100 µM |
| CO[C@H](C)[C@](O)(C(=O)OCC1=CCN2CC[C@@H](O)[C@H]12)C(C)C | > 100 µM | > 100 µM | > 100 µM | > 100 µM | > 100 µM | > 100 µM | > 100 µM | > 100 µM | > 100 µM | > 100 µM |
| COc1ccc(C(=C2C(=O)OC(=O)C2=C(C)C)c2ccc(OC)cc2)cc1 | > 100 µM | > 100 µM | > 100 µM | > 100 µM | > 100 µM | > 100 µM | > 100 µM | > 100 µM | > 100 µM | > 100 µM |
| OC(CCN1CCN(CCOC(c2ccc(F)cc2)c2ccc(F)cc2)CC1)c1ccc(Br)cc1 (configuration not stated) | 21.9 µM | 6.93 µM | 18.8 µM | 23.7 µM | 31.2 µM | 3.3 µM | 3.86 µM | 7.67 µM | 16.1 µM | 6.82 µM |
